Experimental findings from patent publication US12358902B2, “5-(2,5-bis(4-chloro-2-isopropylphenyl)thiophen-3-yl)-1H-tetrazole for the topical treatment of bacterial infections” (DENOVAMED INC., priority 2017, dated 2025) are described below.

Values after ≈ are worked out from the molar mass of the structure shown.

The subject of assay [1] is mupirocin resistant strains of S. epidermidis. As to the kind of experiment: activity against mupirocin resistant strains. It counts as cell-based.
Assay [2] deals with mupirocin resistant S. aureus strains (MMX 1013, MMX 7779, MMX 7782, MMX 8845, MMX 9202). Briefly: MIC versus mupirocin resistant S. aureus panel. The class given is cell-based. The following applies: Staphylococcus aureus; mupirocin resistant S. aureus MMX 1013, MMX 7779, MMX 7782, MMX 8845, MMX 9202. The procedure: (§1) Using a broth microdilution assay according to Clinical Laboratory Standards Institute (CSLI) guidelines, we tested 5-(2,5-bis(4-chloro-2-isopropylphenyl)thiophen-3-yl)-1H-tetrazole (“Test Article” in below table) to establish MICs against a broad range of MDR bacteria and noted substantive activity versus methicillin-resistant Staphylococcus aureus (MRSA), vancomycin-resistant Enterococcus (VRE) and Streptococcus spp. Antimicrobial susceptibility testing was performed by a microdilution broth assay according to CLSI guidelines. The inoculum was prepared from stationary-phase cultures diluted in water. Microtiter plate wells received aliquots of 100 μL of the compound diluted in Mueller-Hinton II cation adjusted media. The final concentration of compound typically ranged from 250 to 0.125 μg/ml in serial two-fold dilutions. In addition to the test compound, growth and sterility controls were included, along with DMSO vehicle control rows. The microtiter plates were inoculated with 5×10^5 bacteria and incubated overnight at 35° C. in a humidified atmosphere.

In assay [3] the test system is panel of 125 important Gram positive strains and MDR clinical isolates of MRSA, VRE, and S. epidermidis. Briefly: MIC versus panel of 125 strains. It counts as cell-based. Conditions: panel of 125 strains incl. strains resistant to vancomycin, penicillin, erythromycin and ciprofloxacin. As for the experimental part: Using a broth microdilution assay according to Clinical Laboratory Standards Institute (CSLI) guidelines, we tested 5-(2,5-bis(4-chloro-2-isopropylphenyl)thiophen-3-yl)-1H-tetrazole (“Test Article” in below table) to establish MICs against a broad range of MDR bacteria and noted substantive activity versus methicillin-resistant Staphylococcus aureus (MRSA), vancomycin-resistant Enterococcus (VRE) and Streptococcus spp. Antimicrobial susceptibility testing was performed by a microdilution broth assay according to CLSI guidelines. The inoculum was prepared from stationary-phase cultures diluted in water. Microtiter plate wells received aliquots of 100 μL of the compound diluted in Mueller-Hinton II cation adjusted media. The final concentration of compound typically ranged from 250 to 0.125 μg/ml in serial two-fold dilutions. In addition to the test compound, growth and sterility controls were included, along with DMSO vehicle control rows. The microtiter plates were inoculated with 5×10^5 bacteria and incubated overnight at 35° C. in a humidified atmosphere. […]

The test system of assay [4] is Clostridium spp. Briefly: activity against Clostridium spp. The class given is cell-based.
In assay [5] the target is LpxA (Escherichia coli, UniProt P0A722). As to the kind of experiment: in vitro enzyme assay, selectivity. The class given is biochemical. The following applies: ACP utilizing bacterial enzyme.
Sequence of LpxA (P0A722 whole entry): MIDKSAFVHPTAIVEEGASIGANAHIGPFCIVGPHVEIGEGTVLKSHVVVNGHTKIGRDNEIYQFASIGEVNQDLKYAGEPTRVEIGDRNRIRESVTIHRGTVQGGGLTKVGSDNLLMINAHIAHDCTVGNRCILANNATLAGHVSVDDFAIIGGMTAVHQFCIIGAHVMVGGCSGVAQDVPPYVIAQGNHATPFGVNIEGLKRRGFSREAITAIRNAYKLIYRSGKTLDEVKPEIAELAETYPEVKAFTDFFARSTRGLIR
Assay [6] concerns mupirocin resistant strains of E. faecalis. Briefly: activity against mupirocin resistant strains. It counts as cell-based.
For assay [7], the system named is S. aureus MRSA clinical isolate ciprofloxacin resistant. Briefly: broth microdilution MIC (CLSI). It counts as cell-based. The following applies: Staphylococcus aureus; S. aureus MRSA clinical isolate ciprofloxacin resistant; read-out: Antibacterial activity (MIC). As for the experimental part: as §1
On the technique in general: In broth dilution the organism is exposed to a series of concentrations in liquid medium.

For assay [8], the system named is S. aureus MRSA USA300 epidemic strain. As to the kind of experiment: broth microdilution MIC (CLSI). The class given is cell-based. The following applies: Staphylococcus aureus; S. aureus MRSA USA300 epidemic strain; read-out: Antibacterial activity (MIC). As for the experimental part: as §1
Assay [9] has as its system S. aureus MRSA clinical isolate from Manchester. As to the kind of experiment: broth microdilution MIC (CLSI). The class given is cell-based. The following applies: Staphylococcus aureus; S. aureus MRSA clinical isolate from Manchester; read-out: Antibacterial activity (MIC). As for the experimental part:
as §1

Assay [10] relates to S. epidermidis NRS7 vancomycin intermediate. As to the kind of experiment: broth microdilution MIC (CLSI). Conditions: Staphylococcus epidermidis, read-out: Antibacterial activity (MIC). The class given is cell-based. As for the experimental part: as §1
The subject of assay [11] is S. aureus MRSA ATCC43300. As to the kind of experiment: broth microdilution MIC (CLSI). It counts as cell-based. Conditions: Staphylococcus aureus; S. aureus MRSA ATCC43300; read-out: Antibacterial activity (MIC). As for the experimental part: as §1
In assay [12] the test system is S. aureus MRSA MISA MU50 NRS1. Briefly: broth microdilution MIC (CLSI). The class given is cell-based. The following applies: Staphylococcus aureus; S. aureus MRSA MISA MU50 NRS1; read-out: Antibacterial activity (MIC). As for the experimental part:
as §1

Assay [13] deals with E. faecalis ATCC51599 vancomycin resistant. Briefly: broth microdilution MIC (CLSI). The following applies: Enterococcus faecalis, read-out: Antibacterial activity (MIC). It counts as cell-based. As for the experimental part: as §1
The test system of assay [14] is S. aureus MRSA USA200 epidemic strain. As to the kind of experiment: broth microdilution MIC (CLSI). The class given is cell-based. The following applies: Staphylococcus aureus; S. aureus MRSA USA200 epidemic strain; read-out: Antibacterial activity (MIC). The procedure: as §1
For assay [15], the system named is S. aureus MRSA USA100 epidemic strain. Briefly: broth microdilution MIC (CLSI). The following applies: Staphylococcus aureus; S. aureus MRSA USA100 epidemic strain; read-out: Antibacterial activity (MIC). The class given is cell-based. The procedure:
as §1

In assay [16] the test system is S. aureus MRSA clinical isolate multi resistant. Briefly: broth microdilution MIC (CLSI). It counts as cell-based. The following applies: Staphylococcus aureus; S. aureus MRSA clinical isolate multi resistant; read-out: Antibacterial activity (MIC). As for the experimental part: as §1
Assay [17] deals with S. aureus MRSA MISA MU3 NRS2. Briefly: broth microdilution MIC (CLSI). The class given is cell-based. The following applies: Staphylococcus aureus; S. aureus MRSA MISA MU3 NRS2; read-out: Antibacterial activity (MIC). As for the experimental part: as §1
In assay [18] the test system is E. faecium ATCC51299 vancomycin resistant. Briefly: broth microdilution MIC (CLSI). The class given is cell-based. The following applies: Enterococcus faecium, read-out: Antibacterial activity (MIC). As for the experimental part:
as §1

The subject of assay [19] is S. aureus MRSA clinical isolate penicillin and erythromycin resistant. Briefly: broth microdilution MIC (CLSI). It counts as cell-based. The following applies: Staphylococcus aureus; S. aureus MRSA clinical isolate penicillin and erythromycin resistant; read-out: Antibacterial activity (MIC). The procedure: as §1
Assay [20] relates to USA100 MRSA strain. As to the kind of experiment: bactericidal activity. The class given is cell-based.
The subject of assay [21] is MRSA. As to the kind of experiment: cellulitis model, intra-dermal MRSA. Conditions: topical formulation for 7 days. It counts as in vivo, SKH1 mice. The procedure: SKH1 mice were injected intra-dermally with MRSA (N=15). 5 mice received neutral control topical formulation for 7 days. 5 mice received a topical formulation containing mupirocin for 7 days. 5 mice received a topical formulation containing 5-(2,5-bis(4-chloro-2-isopropylphenyl)thiophen-3-yl)-1H-tetrazole for 7 days. Lesion area was measured each day. After 7 days, terminal colony forming units (CFUs) were measured to determine microbiological efficacy.

The subject of assay [22] is mupirocin resistant strains of E. faecalis VRE. Briefly: activity against mupirocin resistant strains. The class given is cell-based.

In general, MIC refers to the smallest concentration in the dilution series that meets the test's criterion for growth inhibition. `CC(C)c1cc(Cl)ccc1-c1cc(-c2nnn[nH]2)c(-c2ccc(Cl)cc2C(C)C)s1` [Test Article, 5-(2,5-bis(4-chloro-2-isopropylphenyl)thiophen-3-yl)-1H-tetrazole]: the activity entry in assay [1], in assay [4], in assay [6] and in [22] was “retained activity” in each case. The MIC in [2] was 2 µg/mL (≈ 4.37 µM); in [3], 0.5 to 1 µg/mL (≈ 1.09 to 2.19 µM); in assay [7] it was 1 µg/mL (≈ 2.19 µM); in assay [8], 0.5 µg/mL (≈ 1.09 µM); in [9], 0.5 µg/mL (≈ 1.09 µM); in [10] it was 1 µg/mL (≈ 2.19 µM). Moreover, the MIC in assay [11] is 0.5 µg/mL (≈ 1.09 µM); in [12] it was 0.5 µg/mL (≈ 1.09 µM); in [13] it was 0.5 µg/mL (≈ 1.09 µM); in assay [14], 0.5 µg/mL (≈ 1.09 µM); in [15] it was 1 µg/mL (≈ 2.19 µM); in [16], 0.5 µg/mL (≈ 1.09 µM). In addition, the MIC in [17] stood at 1 µg/mL (≈ 2.19 µM); in [18], 1 µg/mL (≈ 2.19 µM); in [19], 0.5 µg/mL (≈ 1.09 µM). Also, the “inhibition of LpxA” value in assay [5] is “did not inhibit”. Moreover, the bactericidal activity entry in assay [20] is “rapidly bactericidal”. Also, in [21] (FIG. 2A), the “terminal CFU count” value is on record as “significantly reduce”. Moreover, the lesion area result in assay [21] (FIG. 2B) is “significantly reduce”.
